Experiments:
[1] = test system: ileum of the guinea pig; assay: Spasmolytic activity in vivo (effect on the ileum of the guinea pig, contractions induced with intravenous carbachol); settings: atropine = 1
Procedure: Effect on the ileum of the guinea pig.
The spasmolytic effect of the compounds was tested on the ilea of urethane-narcotised, empty-stomach guinea pigs of approximately 500 g (Zwagemakers, Arzn. Forsch. 30, 1517 (1980). Contractions of the intestine were induced every 7 minutes with intravenously administered carbachol in a dose of 5 μg per kg of body weight. After constant response had been reached, the test compounds were administered 3 minutes before the next dose of carbachol was given and the protecting effect was studied for 52 minutes. The contractions after administration of the test compounds were expressed as a percentage of the average of two control values. The average percentage of inhibition was calculated throughout the 52 minutes from the region under the curve. The maximum percentage of inhibition and the duration of the spasmolytic effect were also determined. The spasmolytic effect was considered to be finished when two successive contractions were 20% or less of the control value.

[2] = Peripheral muscarinolytic side effect (saliva/tear secretion, oxotremorine) relative to spasmolytic activity; settings: mouse, in vivo, ip
Procedure: (§1) The choice of the dosage depends on the nature and the severity of the disease.
(§2) 3. Muscarinolytic "side effects".
(§3) The compounds to be tested and oxotremorine were administered intraperitoneally to femal DAP-mice at the same instant or, in case of analgesia, also 30 minutes previously.
(§4) Inhibition of the tremors and/or analgesia caused by oxotremorine is a measure of the central muscarinolytic activity, while the inhibition of saliva secretion or tear secretion reflects the peripheral muscarinolytic activity.

[3] = Central muscarinolytic side effect (tremors/analgesia, oxotremorine) relative to spasmolytic activity; settings: mouse, in vivo, ip
Procedure: as §1, §2, §3, §4

## CN1[C@@H]2CC[C@H]1C[C@@H](OC(=O)C(CO)c1ccccc1)C2 (stereo partly shown) [Atropine]
[1]
  Spasm. activ.: 1

## CCN(CCCC(=O)C1CCCCC1)C(C)Cc1ccc(OC)cc1 (stereo not shown) [Secoverine]
[1]
  Spasm. activ.: 0.6
[2]
  selectivity ratio: 50
[3]
  selectivity ratio: 2

— patent US4889849A, “Spasmolytically active tertiary amine derivatives” (Duphar International Research B.V., priority 1984, dated 1989)
